The results in this text go back to PubChem BioAssay (NCI).

The structures appear in SMILES notation.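 Results reflect a 48-hour exposure of cells in 96-well plates to compound at five concentrations. Here, GI50 denotes the concentration required for 50% inhibition of growth. Definition used: TGI = concentration required for complete inhibition of growth.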

Test systems include UACC-257 melanoma; NCI-H522 lung; SW-620 colon; NCI-H460 lung; RXF 393 renal; SNB-19 CNS; DU-145 prostate; SK-MEL-5 melanoma; UO-31 renal; COLO 205 colon.
Holding throughout (experiment): growth of human tumour cells (NCI), 48 h

On to `N#Cc1cc2c(cc1Cl)Sc1nccn1S2(=O)=O`, for which the TGI is 5.81 µM with UACC-257 melanoma; 4.11 µM in the assay with NCI-H522 lung; 14.4 µM in the assay with SW-620 colon; 32.2 µM in the assay with NCI-H460 lung; 15.5 µM with RXF 393 renal; 24.6 µM with SNB-19 CNS. The TGI in the assay with DU-145 prostate came to 6.18 µM; in the assay on SK-MEL-5 melanoma, 22.6 µM; in the assay with UO-31 renal, 10.7 µM; in the assay with COLO 205 colon it was 31.5 µM.
Turning to `CCOc1cc(-c2nc3ccccn3c2/N=C/c2cc(Br)ccc2O)ccc1O`, the TGI with UACC-257 melanoma is 53.5 µM; in the assay with NCI-H522 lung, > 100 µM; in the assay on SW-620 colon it was > 100 µM; in the assay with NCI-H460 lung, > 100 µM; with RXF 393 renal, 32 µM; with SNB-19 CNS, 52.6 µM. The TGI in the assay with DU-145 prostate is 70.3 µM; in the assay on SK-MEL-5 melanoma it was > 100 µM; in the assay on UO-31 renal it was 84.6 µM; in the assay with COLO 205 colon it was > 100 µM.
For `N#Cc1c(-c2ccc(F)cc2)nc(N/N=C/c2c[nH]c3ccccc23)nc1N1CCOCC1`, the GI50 in the assay on UACC-257 melanoma is 2.2 µM; with NCI-H522 lung, 2.59 µM; in the assay on SW-620 colon, 1.58 µM; in the assay with NCI-H460 lung it was 3.48 µM; with RXF 393 renal, 1.19 µM; in the assay with SNB-19 CNS it was 21 µM. The GI50 was 2.9 µM with DU-145 prostate, 10.9 µM in the assay with SK-MEL-5 melanoma, 1.76 µM in the assay with UO-31 renal and 2.37 µM in the assay with COLO 205 colon. Also, the TGI in the assay with UACC-257 melanoma is 4.87 µM; in the assay with NCI-H522 lung, 7.15 µM; with SW-620 colon, 4.69 µM; with NCI-H460 lung, 25.2 µM; in the assay on RXF 393 renal it was 3.97 µM; in the assay with SNB-19 CNS, > 100 µM. The TGI in the assay with DU-145 prostate was > 100 µM; with SK-MEL-5 melanoma it was 25.9 µM; in the assay on UO-31 renal, 55.2 µM; with COLO 205 colon it was 18.2 µM.
Turning to `NC(=O)C(=CNC(=S)c1ccncc1)C(N)=O`, the TGI with UACC-257 melanoma, in the assay on NCI-H522 lung, in the assay with SW-620 colon, in the assay with NCI-H460 lung, in the assay with RXF 393 renal and in the assay with SNB-19 CNS was > 100 µM in each case. For the same molecule, the TGI in the assay with DU-145 prostate, with SK-MEL-5 melanoma, in the assay on UO-31 renal and in the assay on COLO 205 colon was > 100 µM in each case.
Regarding `CC(=O)OC/C=C(/C=C/CNC1CCCCC1)OC(C)=O`, the TGI with UACC-257 melanoma turned out to be 29.4 µM; in the assay on NCI-H522 lung, 42.1 µM; in the assay on SW-620 colon, 29.8 µM; in the assay with NCI-H460 lung, 52.1 µM; in the assay with RXF 393 renal it was 32.5 µM; with SNB-19 CNS, 49.9 µM. The TGI in the assay on DU-145 prostate turned out to be 31.6 µM; with SK-MEL-5 melanoma, 33.5 µM; in the assay on COLO 205 colon, 28.2 µM.
Regarding `CC1(C(=O)O)CCCC1C(=O)O` (centres undefined), the TGI in the assay with UACC-257 melanoma, in the assay with NCI-H522 lung, with SW-620 colon, with NCI-H460 lung, with RXF 393 renal and in the assay with SNB-19 CNS was > 100 µM each time. For the same molecule, the TGI in the assay on DU-145 prostate, in the assay on SK-MEL-5 melanoma and with UO-31 renal was > 100 µM each time.
`COCc1nc2c(OC)cc(-c3nc4ccc(N5CCN(C)CC5)cc4[nH]3)c(OC)c2[nH]1`: the TGI with UACC-257 melanoma was 34.6 µM; in the assay on NCI-H522 lung it was > 100 µM; in the assay on SW-620 colon, > 100 µM; in the assay on NCI-H460 lung, > 100 µM; in the assay on RXF 393 renal it was 51.9 µM; with SNB-19 CNS, > 100 µM. In addition, the TGI in the assay with DU-145 prostate was > 100 µM; with SK-MEL-5 melanoma it was 53.2 µM; in the assay on UO-31 renal, > 100 µM; with COLO 205 colon it was 77 µM.
Consider `CC1S/C(=N/c2nnc(-c3ccccc3)o2)NC1=O` (centres undefined), for which the TGI with UACC-257 melanoma, in the assay with NCI-H522 lung, with SW-620 colon, in the assay with RXF 393 renal, with SNB-19 CNS and with DU-145 prostate was > 100 µM in each case. Further, the TGI with SK-MEL-5 melanoma, with UO-31 renal and in the assay with COLO 205 colon was > 100 µM in each case.
Take `FC(F)(F)c1ccc2nc3n(c2c1)C(c1c(Cl)cccc1Cl)SC3` (centres undefined): the TGI in the assay on UACC-257 melanoma was found to be 29.3 µM; with NCI-H522 lung, 29.7 µM; in the assay with SW-620 colon, 34.9 µM; in the assay with NCI-H460 lung it was 35.6 µM; in the assay with RXF 393 renal, 30.9 µM; in the assay on SNB-19 CNS, 34 µM. Also, the TGI in the assay with DU-145 prostate came out at 32.3 µM; in the assay on UO-31 renal, 26.8 µM.
For the molecule `OC1(c2ccc(Cl)cc2)c2ccc3ccccc3c2C2=N[C@H]3CCCC[C@@H]3N21` (some centres undefined), the TGI in the assay on NCI-H522 lung is > 100 µM; with SW-620 colon it was > 100 µM; in the assay with NCI-H460 lung, > 100 µM; in the assay with RXF 393 renal it was 20.8 µM; in the assay with SNB-19 CNS, > 100 µM; in the assay on DU-145 prostate it was 37.2 µM. In addition, the TGI with SK-MEL-5 melanoma, with UO-31 renal and with COLO 205 colon was > 100 µM each time.
Regarding `O=C(Cc1ccccc1)NN1C(=O)/C(=C\c2ccc([N+](=O)[O-])cc2)SC1=Nc1ccccc1`, the TGI with UACC-257 melanoma, with SW-620 colon, in the assay with NCI-H460 lung, in the assay with RXF 393 renal, in the assay on SNB-19 CNS and in the assay with DU-145 prostate was > 100 µM in each case. The TGI in the assay with SK-MEL-5 melanoma, in the assay with UO-31 renal and in the assay with COLO 205 colon was > 100 µM in each case.
Turning to `O=C(N/N=C/c1ccco1)c1cc(I)cc(I)c1O`, the TGI is > 50 µM in the assay with NCI-H522 lung; > 50 µM in the assay with SW-620 colon; > 50 µM in the assay on RXF 393 renal; > 50 µM in the assay on SNB-19 CNS; > 50 µM in the assay on DU-145 prostate; 34.4 µM in the assay on SK-MEL-5 melanoma. Besides, the results for the TGI in the assay with UO-31 renal and in the assay on COLO 205 colon were > 50 µM and 45.6 µM, respectively.
As for `Cc1c2ncccc2cc2oc3ccccc3c(=O)c12`, the TGI in the assay on UACC-257 melanoma, in the assay with NCI-H522 lung, with SW-620 colon, in the assay with NCI-H460 lung, in the assay with RXF 393 renal and in the assay on DU-145 prostate was > 100 µM throughout. Further, the TGI in the assay on SK-MEL-5 melanoma, in the assay on UO-31 renal and in the assay with COLO 205 colon was > 100 µM in each case.
Turning to `CN(C)S(=O)(=O)Nc1nnc(S(N)(=O)=O)s1`, the TGI with NCI-H522 lung, in the assay with SW-620 colon, in the assay on NCI-H460 lung, in the assay on RXF 393 renal, in the assay with SNB-19 CNS and with DU-145 prostate was > 100 µM in each case. Also, the TGI with SK-MEL-5 melanoma, in the assay with UO-31 renal and with COLO 205 colon was > 100 µM throughout.
